Among the data in ChEMBL document CHEMBL1201862, “PubChem BioAssay data set” (2004) are IC50 values, retold here.

Active and inactive are the calls of the source. Cut-off read from the data, not from the text of the source: actives have a measured IC50 and inactives only a lower limit.

By IC50 is commonly meant the concentration at which inhibition is half-maximal.

Envelope glycoprotein gp160, sequence (Q6QLK5 whole entry, the tested form may be a part): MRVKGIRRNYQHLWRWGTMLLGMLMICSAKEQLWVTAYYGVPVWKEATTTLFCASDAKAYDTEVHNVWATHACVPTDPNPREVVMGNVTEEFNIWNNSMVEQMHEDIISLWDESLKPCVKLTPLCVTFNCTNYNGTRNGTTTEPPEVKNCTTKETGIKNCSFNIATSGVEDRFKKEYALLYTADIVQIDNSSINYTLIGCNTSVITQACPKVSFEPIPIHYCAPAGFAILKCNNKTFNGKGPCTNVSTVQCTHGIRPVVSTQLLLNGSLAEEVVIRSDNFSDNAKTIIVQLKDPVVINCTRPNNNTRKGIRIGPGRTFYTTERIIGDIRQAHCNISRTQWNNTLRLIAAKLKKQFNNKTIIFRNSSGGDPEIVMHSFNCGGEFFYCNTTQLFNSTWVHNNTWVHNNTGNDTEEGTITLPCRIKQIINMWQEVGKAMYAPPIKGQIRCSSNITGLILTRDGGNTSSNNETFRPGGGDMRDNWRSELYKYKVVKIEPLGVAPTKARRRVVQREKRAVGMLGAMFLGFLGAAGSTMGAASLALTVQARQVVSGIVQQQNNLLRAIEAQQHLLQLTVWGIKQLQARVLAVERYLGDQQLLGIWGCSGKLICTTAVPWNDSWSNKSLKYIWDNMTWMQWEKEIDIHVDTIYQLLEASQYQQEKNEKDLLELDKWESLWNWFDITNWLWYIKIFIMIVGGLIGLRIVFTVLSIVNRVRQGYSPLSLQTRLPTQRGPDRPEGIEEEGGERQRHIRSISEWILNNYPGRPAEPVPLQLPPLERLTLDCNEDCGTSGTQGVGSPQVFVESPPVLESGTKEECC

This assay has as its target Envelope glycoprotein gp160 (Human immunodeficiency virus 1, UniProt Q6QLK5). Kind of assay: cell-free HIV fusion peptide-binding blockers – biochemical, uHTS, fluorescence dequenching, […] (AID 1986).
Consider `N=C1/C(=C/c2ccc(-c3cccc(C(=O)O)c3)o2)C(=O)N=C2SC=C(c3ccccc3)N12`, for which the IC50 was 6.34 µM (active). In the case of `O=C1N=C(NS(=O)(=O)c2ccccc2)S/C1=C\c1cc([N+](=O)[O-])ccc1O`, the half-maximal inhibitory concentration (IC50) was 12.7 µM (active).

Consider `COc1cc(Cl)cc(C(c2c(C(=O)O)[nH]c3ccccc23)c2c(C(=O)O)[nH]c3ccccc23)c1O`, for which the half-inhibitory concentration (IC50) is 4.81 µM (active). Consider `COc1cc(/C=C2\C(=N)N3N=C(S(C)(=O)=O)SC3=NC2=O)ccc1OS(=O)(=O)c1ccccc1`, for which the IC50 was 19.3 µM (active). The value for `CCS(=O)(=O)C1=NSC2=NC(=O)/C(=C\c3ccc(OS(=O)(=O)c4ccccc4)cc3)C(=N)N21` was 19.9 µM (active).
